Experimental data published in patent publication US9580444B2, “Polycyclic pyrazolinone derivative and herbicide comprising same as effective component thereof” (priority 2013, dated 2017).

Key:
Experiment in all cases: Test Example-1: herbicidal effect by a treatment before weeds are generated under submerged conditions
Type in all cases: in vivo
Settings in all cases: 500 g a.i/ha, pre-emergence treatment, about 15 days after treatment, score 0-5
[1] = test system: Cyperus difformis (smallflower umbrella plant)
Procedure: (§1) Using the formulation prepared according to the methods described above, the herbicidal effect of the bicyclic pyrazolinone derivative of the invention according to the methods shown in Test Examples below was examined. The herbicidal effect with respect to the test weeds or the phytotoxicity with respect to the test crops was examined according to the following criteria, and evaluated in six stage scores of 0 to 5.
(§2) A plastic cup of 30 cm^2 was filled with paddy soil, soil puddling was performed, seeds of Echinochloa oryzicola (barnyard grass), Cyperus difformis (smallflower umbrella plant), Monochoria vaginalis (monochoria), Scirpus juncoides (bulrush), and Eleocharis acicularis (needle spikerush), and Lindernia procumbens (common false pimpernel), Rotala indica (indian toothcup), Elatine triandra (waterwort) as other annual broad leaf weeds were seeded therein, and kept in a submerged state. A wettable powder or an emulsifiable concentrate of the compound of the present invention prepared according to Formulation Example was diluted on the weed seeding day, and a submersing treatment was performed so as to be a predetermined dosage. The herbicidal effect with respect to the test weeds about 15 days after the treatment was evaluated according to the evaluation criteria in six stages of 0 to 5 described above.

[2] = test system: Echinochloa oryzicola (barnyard grass)
Procedure: as §1, §2

[3] = test system: Eleocharis acicularis (needle spikerush)
Procedure: as §1, §2

[4] = test system: Monochoria vaginalis (monochoria)
Procedure: as §1, §2

[5] = test system: Scirpus juncoides (bulrush)
Procedure: as §1, §2

[6] = test system: other annual broad leaf weeds (Lindernia procumbens, Rotala indica, Elatine triandra)
Procedure: as §1, §2

Row | Compound | Herbicidal effect Cyperus difformis [1] | Herbicidal effect Echinochloa oryzicola [2] | Herbicidal effect Eleocharis acicularis [3] | Herbicidal effect Monochoria vaginalis [4] | Herbicidal effect Scirpus juncoides [5] | Herbicidal effect Broadleaf weed [6]
1 | O=c1c(-c2cc(Oc3ccccc3O)c(Cl)cc2F)c(Cl)n2n1CCCC2 [Compound 3-1] | 5 (Herbicidal effect/phytotoxicity was 90% or greater) | 5 (Herbicidal effect/phytotoxicity was 90% or greater) | 5 (Herbicidal effect/phytotoxicity was 90% or greater) | 5 (Herbicidal effect/phytotoxicity was 90% or greater) | 5 (Herbicidal effect/phytotoxicity was 90% or greater) | 5 (Herbicidal effect/phytotoxicity was 90% or greater)
2 | C=CCOC(=O)C=C(COc1ccccc1Oc1cc(-c2c(Cl)n3n(c2=O)CCCC3)c(F)cc1Cl)OCC [Compound 3-25] | 5 (Herbicidal effect/phytotoxicity was 90% or greater) | 5 (Herbicidal effect/phytotoxicity was 90% or greater) | 5 (Herbicidal effect/phytotoxicity was 90% or greater) | 5 (Herbicidal effect/phytotoxicity was 90% or greater) | 5 (Herbicidal effect/phytotoxicity was 90% or greater) | 5 (Herbicidal effect/phytotoxicity was 90% or greater)
3 | COc1cccc(Oc2cc(-c3c(Cl)n4n(c3=O)CCCC4)c(F)cc2Cl)c1 [Compound 3-5] | 5 (Herbicidal effect/phytotoxicity was 90% or greater) | 5 (Herbicidal effect/phytotoxicity was 90% or greater) | 5 (Herbicidal effect/phytotoxicity was 90% or greater) | 5 (Herbicidal effect/phytotoxicity was 90% or greater) | 5 (Herbicidal effect/phytotoxicity was 90% or greater) | 5 (Herbicidal effect/phytotoxicity was 90% or greater)
4 | CC(C)Oc1ccc(Oc2cc(-c3c(Cl)n4n(c3=O)CCCC4)c(F)cc2Cl)cc1 [Compound 3-13] | 5 (Herbicidal effect/phytotoxicity was 90% or greater) | 5 (Herbicidal effect/phytotoxicity was 90% or greater) | 5 (Herbicidal effect/phytotoxicity was 90% or greater) | 5 (Herbicidal effect/phytotoxicity was 90% or greater) | 5 (Herbicidal effect/phytotoxicity was 90% or greater) | 5 (Herbicidal effect/phytotoxicity was 90% or greater)
5 | COC(=O)C(C)Oc1cc(-c2c(Cl)n3n(c2=O)CCCC3)c(F)cc1Cl (stereo not drawn) [Example 1-166] | 5 (Herbicidal effect/phytotoxicity was 90% or greater) | 5 (Herbicidal effect/phytotoxicity was 90% or greater) | 5 (Herbicidal effect/phytotoxicity was 90% or greater) | 5 (Herbicidal effect/phytotoxicity was 90% or greater) | 5 (Herbicidal effect/phytotoxicity was 90% or greater) | 5 (Herbicidal effect/phytotoxicity was 90% or greater)
6 | O=c1c(-c2cc(Oc3c(F)cc(C(F)(F)F)cc3Cl)c(Cl)cc2F)c(Cl)n2n1CCCC2 [Example 1-254] | 5 (Herbicidal effect/phytotoxicity was 90% or greater) | 5 (Herbicidal effect/phytotoxicity was 90% or greater) | 5 (Herbicidal effect/phytotoxicity was 90% or greater) | 5 (Herbicidal effect/phytotoxicity was 90% or greater) | 5 (Herbicidal effect/phytotoxicity was 90% or greater) | 5 (Herbicidal effect/phytotoxicity was 90% or greater)
7 | CC1(COc2cc(-c3c(Cl)n4n(c3=O)CCCC4)c(F)cc2Cl)CC(c2ccc(F)cc2)=NO1 (stereo not drawn) [Compound 4-7] | 5 (Herbicidal effect/phytotoxicity was 90% or greater) | 5 (Herbicidal effect/phytotoxicity was 90% or greater) | 5 (Herbicidal effect/phytotoxicity was 90% or greater) | 5 (Herbicidal effect/phytotoxicity was 90% or greater) | 5 (Herbicidal effect/phytotoxicity was 90% or greater) | 5 (Herbicidal effect/phytotoxicity was 90% or greater)
8 | O=c1c(-c2cc(OC3C=CCCC3)c(F)cc2F)c(Cl)n2n1CCCC2 (stereo not drawn) [Example 1-112] | 5 (Herbicidal effect/phytotoxicity was 90% or greater) | 5 (Herbicidal effect/phytotoxicity was 90% or greater) | 5 (Herbicidal effect/phytotoxicity was 90% or greater) | 5 (Herbicidal effect/phytotoxicity was 90% or greater) | 5 (Herbicidal effect/phytotoxicity was 90% or greater) | 5 (Herbicidal effect/phytotoxicity was 90% or greater)
9 | COc1cc(F)ccc1Oc1cc(-c2c(Cl)n3n(c2=O)CCCC3)c(F)cc1Cl [Compound 3-33] | 5 (Herbicidal effect/phytotoxicity was 90% or greater) | 5 (Herbicidal effect/phytotoxicity was 90% or greater) | 5 (Herbicidal effect/phytotoxicity was 90% or greater) | 5 (Herbicidal effect/phytotoxicity was 90% or greater) | 5 (Herbicidal effect/phytotoxicity was 90% or greater) | 5 (Herbicidal effect/phytotoxicity was 90% or greater)
10 | O=c1c(-c2cc(OC(F)F)c(Cl)cc2F)c(Cl)n2n1CCCC2 [Example 1-143] | 5 (Herbicidal effect/phytotoxicity was 90% or greater) | 5 (Herbicidal effect/phytotoxicity was 90% or greater) | 5 (Herbicidal effect/phytotoxicity was 90% or greater) | 5 (Herbicidal effect/phytotoxicity was 90% or greater) | 5 (Herbicidal effect/phytotoxicity was 90% or greater) | 5 (Herbicidal effect/phytotoxicity was 90% or greater)
11 | CCOC(=O)C=C(COc1cc(-c2c(Cl)n3n(c2=O)CCCC3)c(F)cc1Cl)OCC (mixture of isomers) [Compound 2-19] | 5 (Herbicidal effect/phytotoxicity was 90% or greater) | 5 (Herbicidal effect/phytotoxicity was 90% or greater) | 5 (Herbicidal effect/phytotoxicity was 90% or greater) | 5 (Herbicidal effect/phytotoxicity was 90% or greater) | 5 (Herbicidal effect/phytotoxicity was 90% or greater) | 5 (Herbicidal effect/phytotoxicity was 90% or greater)
12 | C=C(C)COc1cc(-c2c(Cl)n3n(c2=O)CCCC3)c(F)cc1F [Example 1-109] | 5 (Herbicidal effect/phytotoxicity was 90% or greater) | 5 (Herbicidal effect/phytotoxicity was 90% or greater) | 5 (Herbicidal effect/phytotoxicity was 90% or greater) | 5 (Herbicidal effect/phytotoxicity was 90% or greater) | 5 (Herbicidal effect/phytotoxicity was 90% or greater) | 5 (Herbicidal effect/phytotoxicity was 90% or greater)
13 | C=CC(F)(F)Oc1cc(-c2c(Cl)n3n(c2=O)CCCC3)c(F)cc1Cl [Example 1-206] | 5 (Herbicidal effect/phytotoxicity was 90% or greater) | 5 (Herbicidal effect/phytotoxicity was 90% or greater) | 5 (Herbicidal effect/phytotoxicity was 90% or greater) | 5 (Herbicidal effect/phytotoxicity was 90% or greater) | 5 (Herbicidal effect/phytotoxicity was 90% or greater) | 5 (Herbicidal effect/phytotoxicity was 90% or greater)
14 | CC1(COc2cc(-c3c(Cl)n4n(c3=O)CCCC4)c(F)cc2Cl)CC(c2ccccc2F)=NO1 (stereo not drawn) [Compound 4-3] | 5 (Herbicidal effect/phytotoxicity was 90% or greater) | 5 (Herbicidal effect/phytotoxicity was 90% or greater) | 5 (Herbicidal effect/phytotoxicity was 90% or greater) | 5 (Herbicidal effect/phytotoxicity was 90% or greater) | 5 (Herbicidal effect/phytotoxicity was 90% or greater) | 5 (Herbicidal effect/phytotoxicity was 90% or greater)
15 | COCOc1cccc(Oc2cc(-c3c(Cl)n4n(c3=O)CCCC4)c(F)cc2Cl)c1 [Compound 3-14] | 5 (Herbicidal effect/phytotoxicity was 90% or greater) | 5 (Herbicidal effect/phytotoxicity was 90% or greater) | 5 (Herbicidal effect/phytotoxicity was 90% or greater) | 5 (Herbicidal effect/phytotoxicity was 90% or greater) | 5 (Herbicidal effect/phytotoxicity was 90% or greater) | 5 (Herbicidal effect/phytotoxicity was 90% or greater)
